Data published in patent publication US11160870B2, “Extended release microparticles and suspensions thereof for medical therapy” (Graybug Vision, Inc., priority 2017, dated 2021).

Test system: eye
Assay: Acute non-GLP IVT ocular tolerability and toxicity study of sunitinib malate (free drug)
Format: in vivo, pigmented rabbits
Details: single bilateral IVT injection, up to 7 days
Protocol: An acute, non-GLP IVT study was conducted to evaluate the ocular tolerability and toxicity of sunitinib malate (free drug) for up to 7 days following a single IVT injection. Sunitinib malate was formulated in phosphate buffered saline and injected bilaterally (0.1 mL) at 0.125 or 1.25 mg per eye.

CCN(CC)CCNC(=O)c1c(C)[nH]c(/C=C2\C(=O)Nc3ccc(F)cc32)c1C [sunitinib malate]
no-observed-adverse-effect-level (NOAEL) dose: 0.125 mg/eye
